Data reported in patent US20250228832A1, “METHODS FOR TREATING DISORDERS AMELIORATED BY MUSCARINIC RECEPTOR ACTIVATION” (KARUNA THERAPEUTICS, INC., priority 2022, published 2025).
Like-named read-outs stand apart in the source and are kept apart here. Each block holds one compound with its values, some of them ahead of it.

How the values were obtained:
human M3 receptor = molecular target: T1, human M3 receptor (Homo sapiens, UniProt P20309); assay: HTRF IP-One curve shift assay, M3; format: cell-based
T1 construct: expressed in transfected cells
T1 sequence (P20309 whole entry): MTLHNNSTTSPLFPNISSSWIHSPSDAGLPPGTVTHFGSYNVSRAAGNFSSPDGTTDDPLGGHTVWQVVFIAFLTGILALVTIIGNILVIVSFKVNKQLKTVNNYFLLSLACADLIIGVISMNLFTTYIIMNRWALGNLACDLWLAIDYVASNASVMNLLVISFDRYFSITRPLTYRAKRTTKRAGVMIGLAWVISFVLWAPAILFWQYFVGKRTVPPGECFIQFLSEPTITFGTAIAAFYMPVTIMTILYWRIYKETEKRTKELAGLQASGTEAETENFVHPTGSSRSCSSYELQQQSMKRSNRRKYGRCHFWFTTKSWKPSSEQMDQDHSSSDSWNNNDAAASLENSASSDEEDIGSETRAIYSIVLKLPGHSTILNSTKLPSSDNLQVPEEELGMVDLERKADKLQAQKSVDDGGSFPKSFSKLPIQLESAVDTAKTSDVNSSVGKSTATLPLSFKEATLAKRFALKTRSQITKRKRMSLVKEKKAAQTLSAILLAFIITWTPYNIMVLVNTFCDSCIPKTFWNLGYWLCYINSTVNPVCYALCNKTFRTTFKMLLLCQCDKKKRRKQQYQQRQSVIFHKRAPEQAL
Procedure: (§1) HTRF IP-One assays were performed using frozen cell aliquots prepared from CHO-K1 cell lines stably expressing human M1, M3, or M5 receptors. Cells were frozen following typical cell freezing protocols. […] Dissociated cells were quenched in full media and collected by centrifugation at 290×g for 5 min. […] 1 mL aliquots of cells were dispensed into cryovial tubes and frozen in a controlled rate cryo-freezer container at −80° C. Cells were stored at −80° C. (or in liquid nitrogen if stored for at least six months) until the day of the assay.
(§2) On the day before the assay, frozen cells were rapidly thawed in a 37° C. water bath, brought up in 20 mL of full media, and collected via centrifugation at 290×g for 5 min. […] Next, […] of cells (10,000 cells/well) were dispensed into 384-well coming plates in triplicate. Cells were incubated overnight in a 37° C., 5% CO2 cell incubator.
(§3) Then, 2 μL of test compounds were added to the cells and incubated for 10 min at 37° C. in a 5% CO2 cell incubator. Next, 2 μL of diluted agonists serially diluted in assay buffer at 7× final assay concentration was added to assay plates. Finally, assay plates were incubated for two hours at 37° C. in a 5% CO2 cell incubator.
(§4) Six μL of IP-1 detection reagents (IP-One Gq HTRF kit, Cisbio Cat #62IPAPEJ) were dispensed to the cells. First, the plates were incubated for two hours at room temperature (IP-One detection reagents were made according to Cisbio protocol). Then, plates were read on an Envision plate reader following the Cisbio guidelines.
(§5) Raw data for all assays was transmitted directly from plate readers into the Beacon database for processing. All assay plates contained positive and negative control wells for data normalization and scaling. […] All control wells contained DMSO at a final assay concentration that matched the test compound wells.
(§6) Counts from the standard curve wells were used to generate a sigmoidal standard curve, which was used to transform the raw counts from each well on the plate (scaling control wells and compound wells) into a pmol/well IP1 value.

human M5 receptor = molecular target: T2, human M5 receptor (Homo sapiens, UniProt P08912); assay: HTRF IP-One curve shift assay, M5; format: cell-based
T2 construct: expressed in transfected cells
T2 sequence (P08912 1-532): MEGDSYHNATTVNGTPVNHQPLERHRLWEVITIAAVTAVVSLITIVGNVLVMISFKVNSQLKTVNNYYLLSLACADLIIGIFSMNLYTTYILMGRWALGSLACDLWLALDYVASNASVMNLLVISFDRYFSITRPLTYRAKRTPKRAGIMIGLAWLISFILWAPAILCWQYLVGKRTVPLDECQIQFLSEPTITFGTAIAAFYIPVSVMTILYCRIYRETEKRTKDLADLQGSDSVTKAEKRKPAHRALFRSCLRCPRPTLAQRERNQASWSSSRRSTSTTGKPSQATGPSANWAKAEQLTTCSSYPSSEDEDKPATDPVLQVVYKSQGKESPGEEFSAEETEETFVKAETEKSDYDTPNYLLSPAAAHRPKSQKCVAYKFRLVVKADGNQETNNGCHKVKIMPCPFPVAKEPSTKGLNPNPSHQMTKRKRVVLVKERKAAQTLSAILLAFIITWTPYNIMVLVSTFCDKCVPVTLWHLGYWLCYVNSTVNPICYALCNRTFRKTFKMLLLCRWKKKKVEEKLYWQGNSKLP
Procedure: as §1, §2, §3, §4, §5, §6

[1] = Emraclidine concentration 41.2 nM, read-out: Emax
[2] = Emraclidine concentration 123 nM, read-out: Emax
[3] = Emraclidine concentration 370 nM
[4] = Emraclidine concentration 1110 nM, read-out: Emax
[5] = Emraclidine concentration 3330 nM, read-out: Emax
[6] = MK-4710 concentration 41.2 nM, read-out: Emax
[7] = MK-4710 concentration 123 nM, read-out: Emax
[8] = MK-4710 concentration 1110 nM, read-out: Emax
[9] = MK-4710 concentration 3330 nM, read-out: Emax
[10] = M5, Emraclidine concentration 0 nM
[11] = M5, Emraclidine concentration 41.2 nM, read-out: Emax
[12] = M5, Emraclidine concentration 123 nM, read-out: Emax
[13] = M5, Emraclidine concentration 370 nM, read-out: Emax
[14] = M5, Emraclidine concentration 1110 nM, read-out: Emax
[15] = M5, Emraclidine concentration 3330 nM, read-out: Emax
[16] = M5, Emraclidine concentration […], read-out: Emax
[17] = M5, MK-4710 concentration 41.2 nM, read-out: Emax
[18] = M5, MK-4710 concentration 123 nM, read-out: Emax
[19] = M5, MK-4710 concentration 370 nM, read-out: Emax
[20] = M5, MK-4710 concentration 1110 nM, read-out: Emax
[21] = M5, MK-4710 concentration 3330 nM, read-out: Emax

EC50 (human M3 receptor; Emraclidine concentration 0 nM): 0.224 µM
Emax (human M3 receptor; Emraclidine concentration 0 nM): 63.5%
Emax (human M3 receptor; [1]): 63.9%
Emax (human M3 receptor; [2]): 68.2%
Emax at […] (human M3 receptor; [3]): 73.4%
Emax (human M3 receptor; [4]): 64.6%
Emax (human M3 receptor; [5]): 73%
Emax at […] (human M3 receptor; Emraclidine concentration […]): 71.1%
α (cooperativity, affinity shift) (human M3 receptor; M4 PAM Emraclidine): 7.6
β (cooperativity, efficacy shift) (human M3 receptor; M4 PAM Emraclidine): 1.1
τ (agonist pharmacology) (human M3 receptor; M4 PAM Emraclidine): 0.0
α (cooperativity, affinity shift) (human M3 receptor; M4 PAM MK-4710): 6.2
β (cooperativity, efficacy shift) (human M3 receptor; M4 PAM MK-4710): 1.6
τ (agonist pharmacology) (human M3 receptor; M4 PAM MK-4710): 0.0
EC50 (human M3 receptor; MK-4710 concentration 0 nM): 0.045 µM
Emax (human M3 receptor; MK-4710 concentration 0 nM): 80.8%
Emax (human M3 receptor; [6]): 75.4%
Emax (human M3 receptor; [7]): 66.6%
Emax at […] (human M3 receptor; MK-4710 concentration 370 nM): 76.7%
Emax (human M3 receptor; [8]): 74.3%
Emax (human M3 receptor; [9]): 86%
Emax at […] (human M3 receptor; MK-4710 concentration […]): 72.7%
EC50 (human M5 receptor; [10]): 0.403 µM
Emax (human M5 receptor; [10]): 63.6%
Emax (human M5 receptor; [11]): 71.8%
Emax (human M5 receptor; [12]): 68.8%
Emax at […] (human M5 receptor; [13]): 67.4%
Emax (human M5 receptor; [14]): 66.9%
Emax (human M5 receptor; [15]): 71.9%
Emax at […] (human M5 receptor; [16]): 67.1%
α (cooperativity, affinity shift) (human M5 receptor; M5, M4 PAM Emraclidine): 10.6
β (cooperativity, efficacy shift) (human M5 receptor; M5, M4 PAM Emraclidine): 1.1
τ (agonist pharmacology) (human M5 receptor; M5, M4 PAM Emraclidine): 0.0
α (cooperativity, affinity shift) (human M5 receptor; M5, M4 PAM MK-4710): 1.4
β (cooperativity, efficacy shift) (human M5 receptor; M5, M4 PAM MK-4710): 0.8
τ (agonist pharmacology) (human M5 receptor; M5, M4 PAM MK-4710): 0.1
EC50 (human M5 receptor; M5, MK-4710 concentration 0 nM): 0.245 µM
Emax (human M5 receptor; M5, MK-4710 concentration 0 nM): 81.82%
Emax (human M5 receptor; [17]): 78.3%
Emax (human M5 receptor; [18]): 78.8%
Emax at […] (human M5 receptor; [19]): 76.6%
Emax (human M5 receptor; [20]): 69.7%
Emax (human M5 receptor; [21]): 77.3%
Emax at […] (human M5 receptor; M5, MK-4710 concentration […], read-out: Emax): 69.7%
Structure (SMILES): CCCCCCCOc1nsnc1C1=CCCCN1C [KTX-593, 3-(heptyloxy)-4-(1-methyl-1,4,5,6-tetrahydropyridin-2-yl)-1,2,5-thiadiazole]

Structure (SMILES): CCCCCCOc1nsnc1C1=CCCN(C)C1 [xanomeline, reference compound]
EC50 (human M3 receptor; Emraclidine concentration 0 nM): 0.155 µM
Emax (human M3 receptor; Emraclidine concentration 0 nM): 77.3%
Emax (human M3 receptor; [1]): 81.9%
Emax (human M3 receptor; [2]): 85.7%
Emax at […] (human M3 receptor; [3]): 91.6%
Emax (human M3 receptor; [4]): 89.1%
Emax (human M3 receptor; [5]): 80.3%
Emax at […] (human M3 receptor; Emraclidine concentration […]): 74.5%
τ (agonist pharmacology) (human M3 receptor; M4 PAM Emraclidine): 0.1
τ (agonist pharmacology) (human M3 receptor; M4 PAM MK-4710): 0.1
EC50 (human M3 receptor; MK-4710 concentration 0 nM): 0.147 µM
Emax (human M3 receptor; MK-4710 concentration 0 nM): 84.2%
Emax (human M3 receptor; [6]): 94.3%
Emax (human M3 receptor; [7]): 90.3%
Emax at […] (human M3 receptor; MK-4710 concentration 370 nM): 88.9%
Emax (human M3 receptor; [8]): 81%
Emax (human M3 receptor; [9]): 81.8%
Emax at […] (human M3 receptor; MK-4710 concentration […]): 81.5%
Emax at […] (human M5 receptor): 80%
Emax (human M5 receptor; [10]): 81.14%
Emax (human M5 receptor; [11]): 78.5%
Emax (human M5 receptor; [12]): 84.2%
Emax at […] (human M5 receptor; [13]): 89%
Emax (human M5 receptor; [14]): 81.9%
Emax (human M5 receptor; [15]): 79.5%
Emax at […] (human M5 receptor; [16]): 79.4%
τ (agonist pharmacology) (human M5 receptor; M5, M4 PAM Emraclidine): 0.1
τ (agonist pharmacology) (human M5 receptor; M5, M4 PAM MK-4710): 0.0
Emax (human M5 receptor; M5, MK-4710 concentration 0 nM): 77.91%
Emax (human M5 receptor; [17]): 87%
Emax (human M5 receptor; [18]): 86.9%
Emax at […] (human M5 receptor; [19]): 92.9%
Emax (human M5 receptor; [20]): 78.6%
Emax (human M5 receptor; [21]): 83%
